In ChEMBL document CHEMBL1133316, “Synthesis and antiviral activity of acyclovir-5'-(phenyl methoxy alaninyl) phosphate as a possible membrane-soluble nucleotide prodrug” (Bioorg Med Chem Lett, 2000):

What was measured:
MRC5 [1] = assay: Compound was tested for inhibition against Varicella zoster virus(VZV) infected MRC5 cells; assay type: functional, cell-based; conditions: Homo sapiens
MRC5 [2] = assay: Compound was tested for inhibition against human cytomegalovirus (HCMV) in MRC-5 cells; assay type: functional, cell-based
Vero [3] = assay: Compound was tested for cytotoxic activity uninfected vero cells; assay type: functional; conditions: Chlorocebus sabaeus
Vero [4] = assay: Compound was tested for inhibition against herpes simplex virus (HSV-2) infected vero cells; assay type: functional, cell-based; conditions: Chlorocebus sabaeus
MRC5 [5] = assay: Compound was tested for inhibition against varicella zoster virus(VZV) infected MRC5 cells; conditions: Homo sapiens

SMILES	EC50 (MRC5 [1]) [µM]	EC50 (MRC5 [2]) [µM]	CC50 (Vero [3]) [µM]	EC50 (Vero [4]) [µM]	EC50 (MRC5 [5]) [µM]
COC(=O)C(C)NP(=O)(OCCOCn1cnc2c(O)nc(N)nc21)Oc1ccccc1 (stereo not drawn)	16	12	> 5	> 100	
Nc1nc2c(ncn2COCCO)c(=O)[nH]1 [ACYCLOVIR]		50	> 5	3	5
